Source: ChEMBL document CHEMBL1201862, “PubChem BioAssay data set” (2004)
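Assay format: 96-well plates, 48-hour exposure. At the GI50, growth is halved.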 Active and inactive are the calls of the source. No stated cut-off is given here; in the data, active = GI50 up to about 1.1 µM and inactive = higher.

Experiments:
Assay in all cases: NCI anticancer screen, dose series, 48 h
HOP-62 = test system: HOP-62
Malme-3M = test system: Malme-3M
HCT-116 = test system: HCT-116
OVCAR-8 = test system: OVCAR-8
SK-MEL-5 = test system: SK-MEL-5
T47D = test system: T47D
CCRF-CEM = test system: CCRF-CEM
SNB-19 = test system: SNB-19
NCI-H460 = test system: NCI-H460
CAKI-1 = test system: CAKI-1
IGROV-1 = test system: IGROV-1
HOP-92 = test system: HOP-92
SR = test system: SR
SF-268 = test system: SF-268
OVCAR-5 = test system: OVCAR-5
A549 = test system: A549
SK-MEL-2 = test system: SK-MEL-2
HCC 2998 = test system: HCC 2998
OVCAR-4 = test system: OVCAR-4
A498 = test system: A498

| SMILES | GI50 (HOP-62) | GI50 (Malme-3M) | GI50 (HCT-116) | GI50 (OVCAR-8) | GI50 (SK-MEL-5) | GI50 (T47D) | GI50 (CCRF-CEM) | GI50 (SNB-19) | GI50 (NCI-H460) | GI50 (CAKI-1) | GI50 (IGROV-1) | GI50 (HOP-92) | GI50 (SR) | GI50 (SF-268) | GI50 (OVCAR-5) | GI50 (A549) | GI50 (SK-MEL-2) | GI50 (HCC 2998) | GI50 (OVCAR-4) | GI50 (A498) |
| --- | --- | --- | --- | --- | --- | --- | --- | --- | --- | --- | --- | --- | --- | --- | --- | --- | --- | --- | --- | --- |
| CN1C2=Nc3n(C)c4ccccc4[n+]3CN2c2ccccc21 | > 100 µM (inactive) | 4.21 µM (inactive) | 43.2 µM (inactive) | 57.1 µM (inactive) | 12.6 µM (inactive) | 16.3 µM (inactive) | 47.4 µM (inactive) | 35.3 µM (inactive) | 24.2 µM (inactive) | > 100 µM (inactive) | 29.9 µM (inactive) | 22.6 µM (inactive) | 28.3 µM (inactive) | 13.1 µM (inactive) | 84.1 µM (inactive) | 37.6 µM (inactive) | 18.4 µM (inactive) |  |  |  |
| O=C1COc2cc(N3CCN(c4cccc(C(F)(F)F)c4)CC3)ccc2N1 | > 100 µM (inactive) |  | > 100 µM (inactive) | > 100 µM (inactive) | > 100 µM (inactive) | > 100 µM (inactive) | > 100 µM (inactive) | > 100 µM (inactive) | > 100 µM (inactive) | > 100 µM (inactive) | > 100 µM (inactive) | > 100 µM (inactive) | > 100 µM (inactive) | > 100 µM (inactive) | > 100 µM (inactive) | > 100 µM (inactive) | > 100 µM (inactive) | > 100 µM (inactive) | > 100 µM (inactive) |  |
| COc1ccc(NC(C)c2ccncc2)cc1 (stereo not given) | > 100 µM (inactive) | > 100 µM (inactive) | > 100 µM (inactive) | > 100 µM (inactive) | > 100 µM (inactive) | > 100 µM (inactive) | > 100 µM (inactive) | > 100 µM (inactive) | > 100 µM (inactive) | > 100 µM (inactive) |  | > 100 µM (inactive) |  | > 100 µM (inactive) | > 100 µM (inactive) | > 100 µM (inactive) | > 100 µM (inactive) | > 100 µM (inactive) | > 100 µM (inactive) | > 100 µM (inactive) |
| CC(C)(C)c1ccc(NS(=O)(=O)c2ccc(N)cc2)cc1 | 0.634 µM (active) | 19.5 µM (inactive) | 18 µM (inactive) | 27.5 µM (inactive) | 17.9 µM (inactive) | 28.3 µM (inactive) | 16.3 µM (inactive) | 35.7 µM (inactive) | 33.7 µM (inactive) | 38.3 µM (inactive) | 18.8 µM (inactive) |  |  | 26.9 µM (inactive) | 31.5 µM (inactive) | 27.1 µM (inactive) | 19.5 µM (inactive) | 18.8 µM (inactive) | 35.8 µM (inactive) | 20.1 µM (inactive) |
| COC(=O)c1c2c(cc3c1CC1(C3)Cc3cc4c(c(C(=O)OC)c3C1)CCCC4)CCCC2 | > 100 µM (inactive) | > 100 µM (inactive) | > 100 µM (inactive) | > 100 µM (inactive) | 53.3 µM (inactive) | > 100 µM (inactive) | 30.5 µM (inactive) |  |  |  | > 100 µM (inactive) | > 100 µM (inactive) |  |  | > 100 µM (inactive) | > 100 µM (inactive) | 1.55 µM (inactive) | > 100 µM (inactive) | > 100 µM (inactive) | > 100 µM (inactive) |
| CN(C)C(=O)c1ccc([N+](=O)[O-])cc1 | > 100 µM (inactive) | > 100 µM (inactive) | > 100 µM (inactive) | > 100 µM (inactive) | > 100 µM (inactive) |  | > 100 µM (inactive) | > 100 µM (inactive) | > 100 µM (inactive) | > 100 µM (inactive) | > 100 µM (inactive) | > 100 µM (inactive) | > 100 µM (inactive) | > 100 µM (inactive) | > 100 µM (inactive) | > 100 µM (inactive) | > 100 µM (inactive) | > 100 µM (inactive) | > 100 µM (inactive) | > 100 µM (inactive) |
| O/N=C1/CCCCC1NO (stereo not given) | > 100 µM (inactive) | > 100 µM (inactive) | > 100 µM (inactive) | > 100 µM (inactive) | > 100 µM (inactive) | > 100 µM (inactive) | > 100 µM (inactive) | > 100 µM (inactive) | > 100 µM (inactive) | > 100 µM (inactive) | > 100 µM (inactive) |  | > 100 µM (inactive) | > 100 µM (inactive) | > 100 µM (inactive) | > 100 µM (inactive) | > 100 µM (inactive) | > 100 µM (inactive) | > 100 µM (inactive) |  |
| Cc1cc(O)cc2oc(=O)c3c(O)cc(O)cc3c12 [ALTERNARIOL] | 20.7 µM (inactive) | 40.3 µM (inactive) | 17.6 µM (inactive) | 43.2 µM (inactive) | 18.5 µM (inactive) |  | 23.4 µM (inactive) | 20 µM (inactive) | 13.1 µM (inactive) | 21 µM (inactive) | 19.7 µM (inactive) | 30.5 µM (inactive) | 3.69 µM (inactive) | 27.4 µM (inactive) | 69.2 µM (inactive) | 16.1 µM (inactive) | 37.6 µM (inactive) | 18.5 µM (inactive) | 65.3 µM (inactive) | 40.1 µM (inactive) |
| O=C(c1ccccc1)C(C(=O)c1ccccc1)c1nc2ccccc2sc1=O | 9.59 µM (inactive) | 9.53 µM (inactive) | 12 µM (inactive) | 9.29 µM (inactive) | 15.6 µM (inactive) | > 25 µM (inactive) | 6.24 µM (inactive) | 18.5 µM (inactive) | 11.4 µM (inactive) | 13.1 µM (inactive) | 8.11 µM (inactive) | 2.72 µM (inactive) |  | > 25 µM (inactive) | > 25 µM (inactive) | 8.91 µM (inactive) | 13.5 µM (inactive) | 23.7 µM (inactive) | 9.71 µM (inactive) | > 25 µM (inactive) |
| COC(=O)c1ccccc1Nc1ccccc1C(=O)OC | 59.6 µM (inactive) | 37.9 µM (inactive) | > 100 µM (inactive) | 89.7 µM (inactive) | 54.7 µM (inactive) | 44.2 µM (inactive) | > 100 µM (inactive) | > 100 µM (inactive) | > 100 µM (inactive) | > 100 µM (inactive) | 89.3 µM (inactive) | 23.4 µM (inactive) |  | 54.2 µM (inactive) | > 100 µM (inactive) | 93.1 µM (inactive) | > 100 µM (inactive) |  | 48.9 µM (inactive) | 52.8 µM (inactive) |
| CC[C@@]1(O)C(=O)OCc2c1cc1n(c2=O)Cc2cc3c(N)cccc3nc2-1 [9-AMINOCAMPTOTHECIN] | < 0.01 µM (active) | 0.0785 µM (active) | 0.0272 µM (active) | 0.0148 µM (active) | 0.0118 µM (active) |  | < 0.0369 µM (active) | < 0.01 µM (active) | < 0.01 µM (active) | < 0.01 µM (active) | 0.246 µM (active) | 0.0356 µM (active) | < 0.215 µM (active) | < 0.01 µM (active) | 0.128 µM (active) | 0.0188 µM (active) | 0.233 µM (active) | 0.111 µM (active) | 0.238 µM (active) | 0.0794 µM (active) |
| Nc1cccc2nnccc12 |  | > 100 µM (inactive) | > 100 µM (inactive) | > 100 µM (inactive) | > 100 µM (inactive) | > 100 µM (inactive) | > 100 µM (inactive) | > 100 µM (inactive) | > 100 µM (inactive) | > 100 µM (inactive) | > 100 µM (inactive) | > 100 µM (inactive) |  | > 100 µM (inactive) | > 100 µM (inactive) | > 100 µM (inactive) | > 100 µM (inactive) |  |  |  |
| O=C(C[n+]1ccccc1)N/N=C(/CCC(=O)N(Cc1ccccc1)Cc1ccccc1)CC(=O)c1ccccc1 | > 100 µM (inactive) | > 100 µM (inactive) | > 100 µM (inactive) | > 100 µM (inactive) | > 100 µM (inactive) |  | > 100 µM (inactive) | > 100 µM (inactive) | > 100 µM (inactive) | > 100 µM (inactive) | > 100 µM (inactive) | > 100 µM (inactive) | > 100 µM (inactive) | > 100 µM (inactive) | > 100 µM (inactive) | > 100 µM (inactive) | > 100 µM (inactive) | > 100 µM (inactive) | > 100 µM (inactive) | > 100 µM (inactive) |
| Cc1nc2c(cc1C(=O)NN)c(=O)n(C)c(=O)n2C | > 100 µM (inactive) |  | > 100 µM (inactive) | > 100 µM (inactive) | > 100 µM (inactive) | > 100 µM (inactive) | > 100 µM (inactive) | > 100 µM (inactive) | > 100 µM (inactive) | > 100 µM (inactive) | > 100 µM (inactive) |  |  |  | > 100 µM (inactive) | > 100 µM (inactive) | > 100 µM (inactive) | > 100 µM (inactive) | > 100 µM (inactive) |  |
| COC(=O)c1ccccc1CC1Cc2c(C)ccc(C)c2C1=O (stereo not given) | 60.1 µM (inactive) | 22.4 µM (inactive) | 16.5 µM (inactive) | 42.1 µM (inactive) | 17.8 µM (inactive) | 21.4 µM (inactive) | 22.2 µM (inactive) | 37.9 µM (inactive) | 30.2 µM (inactive) | 34.5 µM (inactive) | 32 µM (inactive) | 17.2 µM (inactive) |  | 29.6 µM (inactive) | 49.1 µM (inactive) | 40.2 µM (inactive) | 17.9 µM (inactive) | 36.9 µM (inactive) | 25.9 µM (inactive) | 25.8 µM (inactive) |
| NC(Cc1c2ccccc2cc2ccccc12)C(=O)O (stereo not given) | 67.3 µM (inactive) | 80.7 µM (inactive) | 83.9 µM (inactive) | 8.09 µM (inactive) | 47.4 µM (inactive) | > 100 µM (inactive) | 94.8 µM (inactive) | > 100 µM (inactive) | 59.8 µM (inactive) | 62.2 µM (inactive) | 48.3 µM (inactive) | 61.1 µM (inactive) | 68.9 µM (inactive) | > 100 µM (inactive) | > 100 µM (inactive) | > 100 µM (inactive) | > 100 µM (inactive) | > 100 µM (inactive) | > 100 µM (inactive) |  |
